Values quoted from earlier work as cited in patent US6642259B1, “Immune stimulating dietary supplement and method of use thereof” (Trustees of Tufts College, priority 1999, dated 2003).

Experiments:
[1] = test system: T-cell mediated funtion; conditions: supplementation of the elderly human
[2] = test system: T cell function; conditions: supplementation of old mice

vitamin E
immunological responses (e.g. T-cell mediated funtion) [1]: improved | T cell function [2]: increased
